# The C3SDB collision cross section collection
# Values joined by “and” are separate entries in the source; they are usually repeats but may differ in a detail not shown here. Equal values may be shown once.
# Key:
# [1] = instrument: DT, single field
# [2] = instrument: DT, single field, calibrated with Agilent tune mix (Agilent)
# [3] = instrument: TW, calibrated with phosphatidylcholines (ESI+) and phosphatidylethanolamines (ESI-)
# [4] = instrument: TW, calibrated with phosphatidylcholines (ESI+) and phosphatidylethanolamines (ESI-); remark: listed apart in the source
Structure (SMILES),collision cross section (N2) ([1]; [M+NH4]+),collision cross section (N2) ([1]; [M+Na]+),other results
CC/C=C\C/C=C\C/C=C\C/C=C\C/C=C\CCCCCC(=O)O[C@@H](CO)COC(=O)CCCCCCCCCCCC [DG(35:5)],265.29 Å² and 266.85 Å²,–,–
CCCCCCCCCCCCCCCC(=O)OC[C@H](COP(=O)([O-])OCC[N+](C)(C)C)OC(=O)CCCCCCCCCCCCC [PC(30:0)],–,–,collision cross section (N2) ([1]; [M+H]+): 276.5 Å² and 277.83 Å²; collision cross section (N2) ([2]; [M+H]+): 276.8 Å²
CCCCC/C=C\CCCCCCCC(=O)OC[C@H](COP(=O)(O)OC[C@@H](O)CO)OC(=O)CCCCCCC/C=C\CCCCCCCC [PG(33:2)],–,–,collision cross section (N2) ([3]; [M-H]-): 264.5 Å²
CCCCC/C=C\C/C=C\CCCCCCCCCCCC(=O)O[C@H](COC(=O)CCCCCCCCCCC)COP(=O)(O)OC[C@@H](O)CO [PG(34:2)],–,–,collision cross section (N2) ([3]; [M-H]-): 268.1 Å²; collision cross section (N2) ([2]; [M+H]+): 283.3 Å²; collision cross section (N2) ([2]; [M+NH4]+): 284.9 Å²; collision cross section (N2) ([2]; [M-H]-): 268.7 Å²; collision cross section (N2) ([4]; [M+Na]+): 278.2 Å²; collision cross section (N2) ([4]; [M-H]-): 267.4 Å²
CCC/C=C\C/C=C\CCCCCCCC(=O)O[C@H](CO/C=C\CCCCCCCCCCCCC)COP(=O)(O)OC[C@@H](O)CO [PG(p31:2)],–,–,collision cross section (N2) ([3]; [M-H]-): 256.8 Å²
CCCCCC/C=C\CCCCCCCC(=O)O[C@H](CO/C=C\CCCCCCCCCCCCCCCC)COP(=O)(O)OC[C@@H](O)CO [PG(p34:1)],–,–,collision cross section (N2) ([3]; [M-H]-): 268.6 Å²
CCCCC/C=C\C/C=C\CCCCCCCC(=O)O[C@H](CO/C=C\CCCCCCCCCCCCCC)COP(=O)(O)OC[C@@H](O)CO [PG(p34:2)],–,–,collision cross section (N2) ([3]; [M-H]-): 266.6 Å²
CCCCCCCCCCCCCCCC(=O)OC[C@H](COP(=O)(O)O[C@H]1C(O)C(O)C(O)[C@@H](O)C1O)OC(=O)CCCCCCCCCCCCCCC (stereo partly drawn) [PI(16:0/16:0)],–,–,collision cross section (N2) ([3]; [M+Na]+): 289.5 Å²; collision cross section (N2) ([3]; [M-H]-): 280.9 Å²
CCCCCCCCCCCCC=CC[C@@H](O)[C@H](COP(=O)([O-])OCC[N+](C)(C)C)NC(=O)CCCCCCCCCCCCC [SM(32:1)],–,–,collision cross section (N2) ([1]; [M+H]+): 275.46 Å²; collision cross section (N2) ([2]; [M+H]+): 276.6 Å²
CCCCCCCC/C=C\CCCCCCCC(=O)OC[C@@H](COC(=O)CCCCCCCCCCCC)OC(=O)CCCCCCCCCCCC [TG(44:1)],296.47 Å² and 298.81 Å² and 298.68 Å²,295.37 Å² and 297.74 Å²,–
CCCCCCCCCCCCCCCCCCCCCC(=O)OC[C@@H](COC(=O)CCCCCCCCCCC)OC(=O)CCCCCCCCCCC [TG(46:0)],–,302.69 Å² and 303.56 Å²,–
CCCCC/C=C\C/C=C\C/C=C\CCCCCCCCC(=O)OC[C@@H](COC(=O)CCCCCCCCCCC)OC(=O)CCCCCCCCCCC [TG(46:3)],297.58 Å² and 299.43 Å²,297 Å² and 298.89 Å²,collision cross section (N2) ([2]; [M+NH4]+): 297.1 Å²
CCCCC/C=C\C/C=C\C/C=C\CCCCCCCCC(=O)OC[C@@H](COC(=O)CCCCCCCCCCCC)OC(=O)CCCCCCCCCCCC [TG(48:3)],304.89 Å² and 307.09 Å²,304.27 Å² and 306.32 Å²,collision cross section (N2) ([2]; [M+NH4]+): 304.8 Å²
CCCCCCCCC/C=C\CCCCCCCC(=O)OC[C@@H](COC(=O)CCCCCCCCCCCCCC)OC(=O)CCCCCCCCCCCCCC [TG(49:1)],–,311.82 Å² and 313.77 Å²,collision cross section (N2) ([2]; [M+NH4]+): 313 Å²
CCCC/C=C\CCCCCCCC(=O)OC[C@H](COC(=O)CCCCCCCCCCCCCCCCCCCC)OC(=O)CCCCCCC/C=C\CCCC [TG(49:2)],–,309.35 Å² and 311.09 Å²,collision cross section (N2) ([2]; [M+NH4]+): 310.5 Å²
CCCC/C=C\C/C=C\CCCCCCCC(=O)O[C@@H](COC(=O)CCCCCCCCC/C=C\C/C=C\CCCCC)COC(=O)CCCCCCCCCCC [TG(49:4)],307.56 Å²,–,–

Structure (SMILES),collision cross section (N2) ([1]; [M+NH4]+),collision cross section (N2) ([1]; [M+Na]+),other results
CCCCCCCCCCCCCCCCCCC(=O)OC[C@@H](COC(=O)CCCCCCCCCCC)OC(=O)CCCCCCCCCCCCCCCCCC [TG(50:0)],–,316.28 Å²,–
CCCCC/C=C\C/C=C\C/C=C\C/C=C\CCCCCC(=O)OC[C@@H](COC(=O)CCCCCCCCCCCCC)OC(=O)CCCCCCCCCCCCC [TG(50:4)],–,308.43 Å² and 310.33 Å² and 312.33 Å²,collision cross section (N2) ([2]; [M+NH4]+): 309.5 Å²
CCCCC/C=C\C/C=C\C/C=C\C/C=C\CCCC(=O)OC[C@@H](COC(=O)CCCCCCCCCCC)OC(=O)CCCCCCC/C=C\CCCCCCCC [TG(50:5)],–,308.34 Å² and 309.51 Å²,–
CCCCC/C=C\C/C=C\CCCCCCCC(=O)OC[C@@H](COC(=O)CCCCCCC/C=C\CCCCC)OC(=O)CCCCCCC/C=C\C/C=C\CCCCC [TG(51:5)],312.57 Å²,–,–
CCCCCCCC/C=C\CCCCCCCCCC(=O)OC[C@@H](COC(=O)CCCCCCCCCCC)OC(=O)CCCCCCCCC/C=C\CCCCCCCC [TG(52:2)],–,319.25 Å² and 320.86 Å² and 321.71 Å²,–
CCCCC/C=C\C/C=C\C/C=C\C/C=C\CCCC(=O)OC[C@@H](COC(=O)CCCCCCCCCCCCC)OC(=O)CCCCCCCCCCCCCCCCC [TG(52:4)],–,314.5 Å² and 316.78 Å²,collision cross section (N2) ([2]; [M+NH4]+): 317.6 Å²
CCCCC/C=C\C/C=C\C/C=C\C/C=C\CCCC(=O)OC[C@@H](COC(=O)CCCCCCCCCCCCCC)OC(=O)CCCCCCCCCCCCCCCCC [TG(53:4)],318.08 Å² and 320.09 Å² and 324.43 Å²,319.39 Å²,collision cross section (N2) ([2]; [M+NH4]+): 319.5 Å²
CCCCCCCCCCCCCCCCCCCCC(=O)OC[C@@H](COC(=O)CCCCCCCCCCC)OC(=O)CCCCCCCCCCCCCCCCCCCC [TG(54:0)],331.43 Å²,–,–
CCCCC/C=C\C/C=C\C/C=C\C/C=C\CCCC(=O)OC[C@@H](COC(=O)CCCCCCCCCCCCC)OC(=O)CCCCCCCCCCCCCCCCCCC [TG(54:4)],321.8 Å² and 324.34 Å² and 326.13 Å²,320.63 Å² and 322.94 Å²,–
CC/C=C\C/C=C\C/C=C\C/C=C\CCCCC(=O)OC[C@@H](COC(=O)CCCCCCCCCCCCCCCCC)OC(=O)CCCC/C=C\C/C=C\C/C=C\CCCCC [TG(54:7)],317.23 Å² and 320 Å²,316.19 Å²,collision cross section (N2) ([2]; [M+NH4]+): 318 Å²
CCCC/C=C\C/C=C\CCCCCCCC(=O)OC[C@H](COC(=O)CCCCCCCCC/C=C\CCCCCCCCCC)OC(=O)CCCCCCC/C=C\C/C=C\CCCC [TG(56:5)],–,327.06 Å² and 327.86 Å²,–
CCCCC/C=C\C/C=C\C/C=C\CCCCC(=O)O[C@H](COC(=O)CCCCCCC/C=C\CCCCCCC)COC(=O)CCCCCCCCCCCCCCCCCCCCC [TG(57:4)],334.57 Å² and 337.31 Å²,–,–
CC/C=C\C/C=C\C/C=C\C/C=C\C/C=C\C/C=C\CCC(=O)OC[C@@H](COC(=O)CCCCCCCCCCCCCCC)OC(=O)CCCCCCCCCCCCCCCCCCC [TG(58:6)],333.74 Å²,–,–
CCCCCCCCC/C=C\CCCCCCCC(=O)OC[C@H](COC(=O)CCCCCCCCCCCCCCCCCCCCC)OC(=O)CCCCCCC/C=C\CCCCCCCCC [TG(60:2)],346.03 Å²,–,–
CCCCCC/C=C\CCCCCCCC(=O)OC[C@H](COC(=O)CCCCCCCCC/C=C\CCCCCCCCCC)OC(=O)CCCCCCCCC/C=C\CCCCCCCCCC [TG(60:3)],344.73 Å² and 347.66 Å² and 343.58 Å²,–,–
